One experiment deals with CK1ϵ (Homo sapiens, UniProt P49674). Nature of the experiment: CK1ϵ kinase assay (Caliper LABCHIP electrophoretic separation of fluoresceinated peptide substrate and product). The format is biochemical. To be noted: 200 pM CK1ϵ, 50 μM ATP, 1.5 μM peptide substrate, 22 hours at room temperature; read-out: CK1ε (IC50). The method, then:
(§1) CK1ϵ and CK1δ Kinase Assays
(§2) The kinase assay was performed in V-bottom 384-well plates.
(§3) The reaction was incubated at room temperature for 22 hours and terminated by adding 45 μl of 35 mM EDTA to each sample. The reaction mixture was analyzed on the Caliper LABCHIP®3000 (Caliper, Hopkinton, Mass.) by electrophoretic separation of the unphosphorylated substrate and phosphorylated product. […] Compounds were dissolved at 10 mM in dimethylsulfoxide (DMSO) and evaluated at eleven concentrations. IC50 values were derived by non-linear regression analysis.

In a further experiment the target is CK1δ (Homo sapiens, UniProt P48730). Nature of the experiment: CK1δ kinase assay (Caliper LABCHIP electrophoretic separation of fluoresceinated peptide substrate and product). To be noted: 200 pM CK1δ, 50 μM ATP, 1.5 μM peptide substrate, 22 hours at room temperature. In kind it is biochemical. The method, then: as §1, §2, §3
CK1δ, sequence (P48730 whole entry): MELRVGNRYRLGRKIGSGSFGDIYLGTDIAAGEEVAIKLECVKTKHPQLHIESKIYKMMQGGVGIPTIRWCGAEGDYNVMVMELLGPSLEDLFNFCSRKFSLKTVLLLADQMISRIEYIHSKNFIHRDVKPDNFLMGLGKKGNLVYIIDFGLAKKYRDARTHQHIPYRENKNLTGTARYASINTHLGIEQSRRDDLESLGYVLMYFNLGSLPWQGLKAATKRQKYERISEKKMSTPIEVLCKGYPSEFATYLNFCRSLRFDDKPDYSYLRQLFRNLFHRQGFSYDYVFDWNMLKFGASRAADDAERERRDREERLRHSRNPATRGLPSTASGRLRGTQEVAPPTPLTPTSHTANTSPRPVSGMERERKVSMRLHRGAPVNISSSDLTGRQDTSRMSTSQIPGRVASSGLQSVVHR

IC50 data for 23 molecules are collected here from patent US9956220B2, “Imidazo-pyridazine derivatives as casein kinase 1 δ/ϵ inhibitors” (Bristol-Myers Squibb Company, priority 2014, dated 2018).

For orientation: IC50 means the midpoint of a concentration-inhibition curve.

CK1ϵ, sequence (P49674 whole entry): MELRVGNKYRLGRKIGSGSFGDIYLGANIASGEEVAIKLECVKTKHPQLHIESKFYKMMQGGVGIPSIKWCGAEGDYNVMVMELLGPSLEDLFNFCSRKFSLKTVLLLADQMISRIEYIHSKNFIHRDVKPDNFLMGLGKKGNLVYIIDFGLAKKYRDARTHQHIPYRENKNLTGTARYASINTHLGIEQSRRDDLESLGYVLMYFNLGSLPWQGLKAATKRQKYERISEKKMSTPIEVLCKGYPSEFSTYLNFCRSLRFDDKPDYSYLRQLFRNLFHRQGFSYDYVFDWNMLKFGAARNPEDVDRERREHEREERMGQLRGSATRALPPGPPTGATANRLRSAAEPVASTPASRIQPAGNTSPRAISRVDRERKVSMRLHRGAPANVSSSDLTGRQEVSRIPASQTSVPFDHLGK

`O=C(Nc1cn2nc(-c3c(-c4ccc(F)cc4)noc3C3CCOCC3)ccc2n1)c1ccnc(N2CCOCC2)c1` [Example 70, N-(6-(3-(4-Fluorophenyl)-5-(tetrahydro-2H-pyran-4-yl)isoxazol-4-yl)imidazo[1,2-b]pyridazin-2-yl)-2-morpholinoisonicotinamide]: the figures for the IC50 at CK1ϵ and against CK1δ were 27.3 nM and 3.8 nM, respectively.

With `O=C(Nc1cn2nc(-c3c(-c4ccc(F)cc4)nn4c3CN(C(=O)NCCC(F)(F)F)CC4)ccc2n1)c1ccnc(F)c1` [Example 50, 3-(2-(2-Fluoroisonicotinamido)imidazo[1,2-b]pyridazin-6-yl)-2-(4-fluorophenyl)-N-(3,3,3-trifluoropropyl)-6,7-dihydropyrazolo[1,5-a] pyrazine-5(4H)-carboxamide], the IC50 was 9.3 nM at CK1ϵ and 0.7 nM against CK1δ.

In the case of `Cc1nc(C(F)(F)F)ccc1C(=O)Nc1cn2nc(-c3c(-c4ccc(F)cc4)nn4c3CNCC4)ccc2n1` [Example 11, N-(6-(2-(4-Fluorophenyl)-4,5,6,7-tetrahydropyrazolo[1,5-a]pyrazin-3-yl)imidazo[1,2-b]pyridazin-2-yl)-2-methyl-6-(trifluoromethyl)nicotinamide], the values for the IC50 on CK1ϵ and on CK1δ were 15.2 nM and 1.8 nM, respectively.

For `CS(=O)(=O)N1CCn2nc(-c3ccc(F)cc3)c(-c3ccc4nc(NC(=O)c5ccnc(F)c5)cn4n3)c2C1` [Example 35, 2-Fluoro-N-(6-(2-(4-fluorophenyl)-5-(methylsulfonyl)-4,5,6,7-tetrahydropyrazolo[1,5-a]pyrazin-3-yl)imidazo[1,2-b]pyridazin-2-yl)isonicotinamide], the half-maximal inhibitory concentration (IC50) on CK1ϵ worked out at 0.8 nM; at CK1δ it was 0.2 nM.

For the molecule `O=C(Nc1cn2nc(-c3c(-c4ccc(F)cc4)nn4c3CN(C(=O)NC3CC3)CC4)ccc2n1)c1ccnc(F)c1` [Example 46, N-Cyclopropyl-3-(2-(2-fluoroisonicotinamido)imidazo[1,2-b]pyridazin-6-yl)-2-(4-fluorophenyl)-6,7-dihydropyrazolo[1,5-a]pyrazine-5(4H)-carboxamide], the IC50 on CK1ϵ worked out at 2.5 nM; at CK1δ, 0.4 nM.

Regarding `O=C(Nc1cn2nc(-c3c(-c4ccc(F)cc4)nn4c3CN(S(=O)(=O)c3cccc(F)c3)CC4)ccc2n1)c1ccnc(F)c1` [Example 38, 2-Fluoro-N-(6-(2-(4-fluorophenyl)-5-((3-fluorophenyl)sulfonyl)-4,5,6,7-tetrahydropyrazolo [1,5-a]pyrazin-3-yl)imidazo [1,2-b]pyridazin-2-yl) isonicotinamide], the IC50 on CK1ϵ came to 4.9 nM; against CK1δ, 0.3 nM.

For the molecule `O=C(Nc1cn2nc(-c3c(-c4ccc(F)cc4)nn4c3CN(S(=O)(=O)C3CC3)CC4)ccc2n1)c1ccnc(F)c1` [Example 36, N-(6-(5-(Cyclopropylsulfonyl)-2-(4-fluorophenyl)-4,5,6,7-tetrahydropyrazolo[1,5-a]pyrazin-3-yl)imidazo[1,2-b]pyridazin-2-yl)-2-fluoroisonicotinamide], the IC50 at CK1ϵ amounted to 1.2 nM; at CK1δ, 0.1 nM.

For the molecule `O=C(Nc1cn2nc(-c3c(-c4ccc(F)cc4)nn4c3CNCC4)ccc2n1)c1ccnc(N2CCOCC2)c1` [Example 4, N-(6-(2-(4-Fluorophenyl)-4,5,6,7-tetrahydropyrazolo[1,5-a]pyrazin-3-yl)imidazo[1,2-b]pyridazin-2-yl)-2-morpholinoisonicotinamide], the IC50 turned out to be 1.3 nM on CK1ϵ and 0.3 nM on CK1δ.

For the molecule `O=C(Nc1cn2nc(-c3c(-c4ccc(F)cc4)nn4c3CCCC4)ccc2n1)c1ccncc1` [Example 63, N-(6-(2-(4-Fluorophenyl)-4,5,6,7-tetrahydropyrazolo[1,5-a]pyridin-3-yl)imidazo[1,2-b]pyridazin-2-yl) isonicotinamide], the IC50 on CK1ϵ came to 1.2 nM; at CK1δ, 0.3 nM.

Take `CC(C)(C)NC(=O)N1CCn2nc(-c3ccc(F)cc3)c(-c3ccc4nc(NC(=O)c5ccnc(F)c5)cn4n3)c2C1` [Example 41, N-(tert-Butyl)-3-(2-(2-fluoroisonicotinamido)imidazo[1,2-b]pyridazin-6-yl)-2-(4-fluorophenyl)-6,7-dihydropyrazolo[1,5-a]pyrazine-5 (4)-carboxamide]: the IC50 at CK1ϵ amounted to 20.5 nM; against CK1δ, 2.8 nM.

Regarding `Cc1nc(-c2ccncc2)sc1C(=O)Nc1cn2nc(-c3c(-c4ccc(F)cc4)nn4c3CNCC4)ccc2n1` [Example 2, N-(6-(2-(4-Fluorophenyl)-4,5,6,7-tetrahydropyrazolo[1,5-a]pyrazin-3-yl)imidazo[1,2-b]pyridazin-2-yl)-4-methyl-2-(pyridin-4-yl)thiazole-5-carboxamide], the IC50 came out at 2.4 nM at CK1ϵ and 0.2 nM on CK1δ.

In the case of `O=C(Nc1cn2nc(-c3c(-c4ccc(F)cc4)nn4c3CNCC4)ccc2n1)c1ccncc1` [Example 3, N-(6-(2-(4-Fluorophenyl)-4,5,6,7-tetrahydropyrazolo[1,5-a]pyrazin-3-yl)imidazo[1,2-b]pyridazin-2-yl)isonicotinamide], the IC50 was determined as 5.1 nM on CK1ϵ and 0.5 nM against CK1δ.

As to `O=C(Nc1cn2nc(-c3c(-c4ccc(F)cc4)nn4c3CN(C(=O)NCC(F)(F)F)CC4)ccc2n1)c1ccnc(F)c1` [Example 48, 3-(2-(2-Fluoroisonicotinamido)imidazo[1,2-b]pyridazin-6-yl)-2-(4-fluorophenyl)-N-(2,2,2-trifluoroethyl)-6,7-dihydropyrazolo[1,5-a]pyrazine-5(4H)-carboxamide], the IC50 on CK1ϵ worked out at 5.6 nM; at CK1δ, 0.4 nM.

`O=C(Nc1cn2nc(-c3c(-c4ccc(F)cc4)nn4c3CN(C3CC3)CC4)ccc2n1)c1ccnc(F)c1` [Example 31, N-(6-(5-Cyclopropyl-2-(4-fluorophenyl)-4,5,6,7-tetrahydropyrazolo[1,5-a]pyrazin-3-yl)imidazo[1,2-b]pyridazin-2-yl)-2-fluoroisonicotinamide]: the IC50 at CK1ϵ is 1.1 nM; on CK1δ, 0.1 nM.

`O=C(Nc1cn2nc(-c3c(-c4ccc(F)cc4)nn4c3CN(C(=O)CCC(F)(F)F)CC4)ccc2n1)c1ccnc(F)c1` [Example 16, 2-Fluoro-N-(6-(2-(4-fluorophenyl)-5-(4,4,4-trifluorobutanoyl)-4,5,6,7-tetrahydropyrazolo[1,5-a]pyrazin-3-yl)imidazo[1,2-b]pyridazin-2-yl) isonicotinamide]: the IC50 is 4.9 nM at CK1ϵ and 0.8 nM against CK1δ.

As for `O=C(Nc1cn2nc(-c3c(-c4ccc(F)cc4)nn4c3COCC4)ccc2n1)c1ccnc(F)c1` [Example 53, 2-Fluoro-N-(6-(2-(4-fluorophenyl)-6,7-dihydro-4H-pyrazolo[5,1-c][1,4]oxazin-3-yl)imidazo[1,2-b]pyridazin-2-yl)isonicotinamide], the results for the IC50 on CK1ϵ and at CK1δ were 4.1 nM and 0.4 nM, respectively.

In the case of `O=C(Nc1cn2nc(-c3c(-c4ccc(F)cc4)nn4c3CN(C(=O)c3ccncc3)CC4)ccc2n1)c1ccnc(F)c1` [Example 13, 2-Fluro-N-(6-(2-(4-fluorophenyl)-5-isonicotinoyl-4,5,6,7-tetrahydropyrazolo[1,5-a]pyrazin-3-yl)imidazo[1,2-b]pyridazin-2-yl) isonicotinamide], the results for the IC50 on CK1ϵ and against CK1δ were 4.5 nM and 0.5 nM, respectively.

Take `O=C(Nc1cn2nc(-c3c(-c4ccc(F)cc4)nn4c3CCC4)ccc2n1)c1ccnc(F)c1` [Example 65, 2-Fluoro-N-(6-(2-(4-fluorophenyl)-5,6-dihydro-4H-pyrrolo[1,2-b]pyrazol-3-yl)imidazo[1,2-b]pyridazin-2-yl)isonicotinamide]: the IC50 turned out to be 4.7 nM on CK1ϵ and 0.4 nM against CK1δ.

For `O=C(Nc1cn2nc(-c3c(-c4ccc(F)cc4)nn4c3CN(C3CCC3)CC4)ccc2n1)c1ccnc(F)c1` [Example 29, N-(6-(5-Cyclobutyl-2-(4-fluorophenyl)-4,5,6,7-tetrahydropyrazolo[1,5-a]pyrazin-3-yl)imidazo[1,2-b]pyridazin-2-yl)-2-fluoroisonicotinamide], the IC50 was found to be 6 nM at CK1ϵ and 0.4 nM against CK1δ.

For `O=C(Nc1cn2nc(-c3c(-c4ccc(F)cc4)nn4c3CN(C3COC3)CC4)ccc2n1)c1ccnc(F)c1` [Example 30, 2-Fluoro-N-(6-(2-(4-fluorophenyl)-5-(oxetan-3-yl)-4,5,6,7-tetrahydropyrazolo[1,5-a]pyrazin-3-yl)imidazo[1,2-b]pyridazin-2-yl)isonicotinamide], the IC50 on CK1ϵ came out at 6.5 nM; on CK1δ, 0.5 nM.

As for `O=C(Nc1cn2nc(-c3c(-c4ccc(F)cc4)nn4c3CN(C(=O)NC35CC6CC(CC(C6)C3)C5)CC4)ccc2n1)c1ccnc(F)c1` [Example 45, N-(Adamantan-1-yl)-3-(2-(2-fluoroisonicotinamido)imidazo [1,2-b]pyridazin-6-yl)-2-(4-fluorophenyl)-6,7-dihydropyrazolo[1,5-a]pyrazine-5(4H)-carboxamide], the figures for the 50% inhibitory concentration (IC50) at CK1ϵ and against CK1δ were 154 nM and 19.2 nM, respectively.

With `O=C(Nc1cn2nc(-c3c(-c4ccc(F)cc4)nn4c3CN(C(=O)NC3(C(F)(F)F)CC3)CC4)ccc2n1)c1ccnc(F)c1` [Example 51, 3-(2-(2-Fluoroisonicotinamido)imidazo[1,2-b]pyridazin-6-yl)-2-(4-fluorophenyl)-N-(1-(trifluoromethyl)cyclopropyl)-6,7-dihydropyrazolo[1,5-a] pyrazine-5(4H)-carboxamide], the IC50 at CK1ϵ is 12.3 nM; on CK1δ, 1.5 nM.

Regarding `CC(C)OC(=O)N1CCn2nc(-c3ccc(F)cc3)c(-c3ccc4nc(NC(=O)c5ccnc(F)c5)cn4n3)c2C1` [Example 34, Isopropyl 3-(2-(2-fluoroisonicotinamido)imidazo[1,2-b]pyridazin-6-yl)-2-(4-fluorophenyl)-6,7-dihydropyrazolo[1,5-a] pyrazine-5(4H)-carboxylate], the results for the IC50 at CK1ϵ and against CK1δ were 6.5 nM and 1 nM, respectively.
